Experimental data as given in US6274715A, “Tricyclic erythromycin derivatives” (priority 1997, dated 2001).
In brackets after ≈: the same amount, converted by molar mass.

Assays:
Format in all cases: cell-based
[1] = tested on: STAPHYLOCOCCUS AUREUS ATCC 6538P; experiment: In vitro antibacterial activity, MIC, BHI agar dilution; details: S. aureus ATCC 6538P, 35-37° C., 20 to 24 hours, unit assumed
[2] = tested on: STAPHYLOCOCCUS AUREUS A5177; experiment: as above; details: S. aureus A5177, unit assumed
[3] = tested on: STAPHYLOCOCCUS AUREUS A-5278; experiment: as above; details: S. aureus A-5278, unit assumed
[4] = tested on: STAPHYLOCOCCUS AUREUS CMX 642A; experiment: as above; details: S. aureus CMX 642A, unit assumed
[5] = tested on: STAPHYLOCOCCUS AUREUS NCTC10649M; experiment: as above; details: S. aureus NCTC10649M, unit assumed
[6] = tested on: STAPHYLOCOCCUS AUREUS CMX 553; experiment: as above; details: S. aureus CMX 553, unit assumed
[7] = tested on: STAPHYLOCOCCUS AUREUS 1775; experiment: as above; details: S. aureus 1775, unit assumed
[8] = tested on: STAPHYLOCOCCUS EPIDERMIDIS 3519; details: S. epidermidis 3519; BHI agar; unit assumed
EN[…] ATCC 8043 = experiment: In vitro antibacterial activity, MIC, BHI agar dilution; details: E. faecium ATCC 8043, unit assumed
Summary of the method: (§1)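 Twelve successive aqueous dilutions of compound in Brain Heart Infusion agar were inoculated with 1:100 culture dilutions (1:10 for slow growers such as Micrococcus, Streptococcus) by Steers replicator and incubated at 35-37° C for 20 to 24 hours. MIC was the lowest concentration giving no growth, slight haze or sparse colonies versus drug-free control.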

M[…] ATCC 4698 = experiment: as above; details: M. luteus ATCC 4698, unit assumed
Summary of the method: as §1

M[…] ATCC 9341 = experiment: as above; details: M. luteus ATCC 9341, unit assumed
Summary of the method: as §1

STR[…] 508 = experiment: as above; details: S. agalactiae CMX 508, unit assumed
Summary of the method: as §1

[9] = tested on: STREPTOCOCCUS BOVIS A-5169; experiment: as above; details: S. bovis A-5169, unit assumed
[10] = tested on: STREPTOCOCCUS PYOGENES EES61; experiment: as above; details: S. pyogenes EES61, unit assumed
[11] = tested on: STREPTOCOCCUS PYOGENES 930; experiment: as above; details: S. pyogenes 930, unit assumed
[12] = tested on: STREPTOCOCCUS PYOGENES PIU 2548; experiment: as above; details: S. pyogenes PIU 2548, unit assumed
ESCHERICHIA COLI JUHL = details: E. coli JUHL; BHI agar; unit assumed
ESCHERICHIA COLI SS = experiment: In vitro antibacterial activity, MIC, BHI agar dilution; details: E. coli SS, unit assumed
ESCHERICHIA COLI DC-2 = experiment: as above; details: E. coli DC-2, unit assumed
ESCHERICHIA COLI H560 = experiment: as above; details: E. coli H560, unit assumed
ESCHERICHIA COLI KNK 437 = details: E. coli KNK 437; BHI agar; unit assumed
[13] = tested on: ENTEROBACTER AEROGENES ATCC 13048; experiment: In vitro antibacterial activity, MIC, BHI agar dilution; details: E. aerogenes ATCC 13048, unit assumed
[14] = tested on: KLEBSIELLA PNEUMONIAE ATCC 8045; experiment: as above; details: K. pneumoniae ATCC 8045, unit assumed
[15] = tested on: PROVIDENCIA STUARTII CMX 640; details: P. stuartii CMX 640; BHI agar; unit assumed
[16] = tested on: PSEUDOMONAS AERUGINOSA BMH10; experiment: In vitro antibacterial activity, MIC, BHI agar dilution; details: P. aeruginosa BMH10, unit assumed
[17] = tested on: PSEUDOMONAS AERUGINOSA 5007; experiment: as above; details: P. aeruginosa 5007, unit assumed
[18] = tested on: PSEUDOMONAS AERUGINOSA K799/WT; experiment: as above; details: P. aeruginosa K799/WT, unit assumed
[19] = tested on: PSEUDOMONAS AERUGINOSA K799/61; experiment: as above; details: P. aeruginosa K799/61, unit assumed
PSEUDOMONAS CEPACIA 296I = experiment: as above; details: P. cepacia 296I, unit assumed
[20] = tested on: PSEUDOMONAS AERUGINOSA DPHD-5263; experiment: as above; details: P. aeruginosa DPHD-5263, unit assumed
[21] = tested on: PSEUDOMONAS AERUGINOSA DPHD-2862; experiment: as above; details: P. aeruginosa DPHD-2862, unit assumed
CANDIDA ALBICANS CCH 442 = experiment: as above; details: C. albicans CCH 442, unit assumed
[22] = tested on: MYCOBACTERIUM SMEGMATIS ATCC 114; experiment: as above; details: M. smegmatis ATCC 114, unit assumed

| Structure (SMILES) | MIC [1] [µg/mL] | MIC [2] [µg/mL] | MIC [3] [µg/mL] | MIC [4] [µg/mL] | MIC [5] [µg/mL] | MIC [6] [µg/mL] | MIC [7] [µg/mL] | MIC [8] [µg/mL] | MIC (EN[…] ATCC 8043) [µg/mL] | MIC (M[…] ATCC 4698) [µg/mL] | MIC (M[…] ATCC 9341) [µg/mL] | MIC (STR[…] 508) [µg/mL] | MIC [9] [µg/mL] | MIC [10] [µg/mL] | MIC [11] [µg/mL] | MIC [12] [µg/mL] | MIC (ESCHERICHIA COLI JUHL) [µg/mL] | MIC (ESCHERICHIA COLI SS) [µg/mL] | MIC (ESCHERICHIA COLI DC-2) [µg/mL] | MIC (ESCHERICHIA COLI H560) [µg/mL] | other results |
| --- | --- | --- | --- | --- | --- | --- | --- | --- | --- | --- | --- | --- | --- | --- | --- | --- | --- | --- | --- | --- | --- |
| CC[C@H]1OC(=O)[C@H](C)C(=O)[C@H](C)[C@@H](O[C@@H]2O[C@H](C)C[C@H](N(C)C)[C@H]2O)[C@](C)(OC)C[C@@H](C)C2=NCC(COC(=O)c3ccc(Cl)cc3)N3C(=O)O[C@@]1(C)[C@H]3[C@H]2C (stereo partly drawn) [Example 141] | 0.1 (≈ 0.124 µM) | 0.1 (≈ 0.124 µM) | 50 (≈ 62 µM) | 0.1 (≈ 0.124 µM) | 0.1 (≈ 0.124 µM) | 0.1 (≈ 0.124 µM) | 50 (≈ 62 µM) | 0.1 (≈ 0.124 µM) | 0.02 (≈ 0.0248 µM) | 0.1 (≈ 0.124 µM) | 0.01 (≈ 0.0124 µM) | 0.02 (≈ 0.0248 µM) | ≤ 0.005 | ≤ 0.005 | 50 (≈ 62 µM) | 0.2 (≈ 0.248 µM) | 50 (≈ 62 µM) | 0.78 (≈ 0.967 µM) | 50 (≈ 62 µM) | 12.5 (≈ 15.5 µM) | MIC (ESCHERICHIA COLI KNK 437): 50 µg/mL (≈ 62 µM); MIC [13]: > 100 µg/mL; MIC [14]: 100 µg/mL (≈ 124 µM); MIC [15]: > 100 µg/mL; MIC [16]: 100 µg/mL (≈ 124 µM); MIC [17]: > 100 µg/mL; MIC [18]: > 100 µg/mL; MIC [19]: 1.56 µg/mL (≈ 1.93 µM); MIC (PSEUDOMONAS CEPACIA 296I): 25 µg/mL (≈ 31 µM); MIC [20]: > 100 µg/mL; MIC [21]: > 100 µg/mL; MIC (CANDIDA ALBICANS CCH 442): > 100 µg/mL; MIC [22]: 0.2 µg/mL (≈ 0.248 µM) |
| CC[C@H]1OC(=O)[C@H](C)C(=O)[C@H](C)[C@@H](O[C@@H]2O[C@H](C)C[C@H](N(C)C)[C@H]2O)[C@](C)(OC)C[C@@H](C)C2=NCC(COC(=O)c3ccc4ccccc4n3)N3C(=O)O[C@@]1(C)[C@H]3[C@H]2C (stereo partly drawn) [Example 142] | 0.2 (≈ 0.243 µM) | 0.2 (≈ 0.243 µM) | > 100 | 0.2 (≈ 0.243 µM) | 0.2 (≈ 0.243 µM) | 0.2 (≈ 0.243 µM) | > 100 | 0.2 (≈ 0.243 µM) | 0.1 (≈ 0.122 µM) | 0.1 (≈ 0.122 µM) | 0.02 (≈ 0.0243 µM) | 0.01 (≈ 0.0122 µM) | 0.01 (≈ 0.0122 µM) | 0.01 (≈ 0.0122 µM) | > 100 | 0.39 (≈ 0.474 µM) | 50 (≈ 60.8 µM) | 1.56 (≈ 1.9 µM) | 25 (≈ 30.4 µM) | 25 (≈ 30.4 µM) | MIC (ESCHERICHIA COLI KNK 437): 100 µg/mL (≈ 122 µM); MIC [13]: > 100 µg/mL; MIC [14]: > 100 µg/mL; MIC [15]: > 100 µg/mL; MIC [16]: > 100 µg/mL; MIC [17]: > 100 µg/mL; MIC [18]: > 100 µg/mL; MIC [19]: 1.56 µg/mL (≈ 1.9 µM); MIC (PSEUDOMONAS CEPACIA 296I): > 100 µg/mL; MIC [20]: > 100 µg/mL; MIC [21]: > 100 µg/mL; MIC (CANDIDA ALBICANS CCH 442): > 100 µg/mL; MIC [22]: 1.56 µg/mL (≈ 1.9 µM) |
| CC[C@H]1OC(=O)[C@H](C)C(=O)[C@H](C)[C@@H](O[C@@H]2O[C@H](C)C[C@H](N(C)C)[C@H]2O)[C@](C)(OC)C[C@@H](C)C2=NCC(COC(=O)c3cc4ccccc4n3C)N3C(=O)O[C@@]1(C)[C@H]3[C@H]2C (stereo partly drawn) [Example 143] | 0.1 (≈ 0.121 µM) | 0.2 (≈ 0.242 µM) | 50 (≈ 60.6 µM) | 0.2 (≈ 0.242 µM) | 0.2 (≈ 0.242 µM) | 0.2 (≈ 0.242 µM) | 50 (≈ 60.6 µM) | 0.2 (≈ 0.242 µM) | 0.02 (≈ 0.0242 µM) | 0.2 (≈ 0.242 µM) | 0.01 (≈ 0.0121 µM) | 0.02 (≈ 0.0242 µM) | 0.01 (≈ 0.0121 µM) | 0.02 (≈ 0.0242 µM) | 50 (≈ 60.6 µM) | 0.39 (≈ 0.473 µM) | 50 (≈ 60.6 µM) | 0.78 (≈ 0.945 µM) | 50 (≈ 60.6 µM) | 25 (≈ 30.3 µM) | MIC (ESCHERICHIA COLI KNK 437): 50 µg/mL (≈ 60.6 µM); MIC [13]: > 100 µg/mL; MIC [14]: > 100 µg/mL; MIC [15]: > 100 µg/mL; MIC [16]: > 100 µg/mL; MIC [17]: > 100 µg/mL; MIC [18]: > 100 µg/mL; MIC [19]: 1.56 µg/mL (≈ 1.89 µM); MIC (PSEUDOMONAS CEPACIA 296I): 50 µg/mL (≈ 60.6 µM); MIC [20]: > 100 µg/mL; MIC [21]: > 100 µg/mL; MIC (CANDIDA ALBICANS CCH 442): 100 µg/mL (≈ 121 µM); MIC [22]: 0.2 µg/mL (≈ 0.242 µM) |
